# Source: the supplement of paper PMC10307832
# Assays:
# Assay in all cases: relative viability (nuclei count vs DMSO), 5 days (fraction); higher = more cells survive
# VX-11e + OSI-027 = compound: CC1=CN=C(N=C1C2=CNC(=C2)C(=O)N[C@H](CO)C3=CC(=CC=C3)Cl)NC4=C(C=C(C=C4)F)Cl [VX-11e] + COc1cccc2cc(-c3nc([C@H]4CC[C@H](C(=O)O)CC4)n4ncnc(N)c34)[nH]c12 [OSI-027] (partner 0.5 µM)
# Method in brief: (§1)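 Lung cancer cell lines, seeded in 1536-well plates, were treated the following day by pin tool with a single drug or with five library-drug doses (not always all listed) in √10 steps on top of a fixed anchor-drug dose. Cells were fixed and nuclei stained in one step after 5 days, and nuclei were counted. Relative viability is the nuclei count for treated wells divided by that for vehicle wells, reported as medians of duplicate plates.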
# VX-11e + Trametinib = compound: CC1=CN=C(N=C1C2=CNC(=C2)C(=O)N[C@H](CO)C3=CC(=CC=C3)Cl)NC4=C(C=C(C=C4)F)Cl [VX-11e] + CC(=O)Nc1cccc(-n2c(=O)n(C3CC3)c(=O)c3c(Nc4ccc(I)cc4F)n(C)c(=O)c(C)c32)c1 [Trametinib] (partner 0.02 µM)
# Method in brief: as §1
# VX-11e + Phenformin = compound: CC1=CN=C(N=C1C2=CNC(=C2)C(=O)N[C@H](CO)C3=CC(=CC=C3)Cl)NC4=C(C=C(C=C4)F)Cl [VX-11e] + N=C(N)NC(=N)NCCc1ccccc1 [Phenformin] (partner 250 µM)
# Method in brief: as §1
# VX-11e + Crizotinib = compound: CC1=CN=C(N=C1C2=CNC(=C2)C(=O)N[C@H](CO)C3=CC(=CC=C3)Cl)NC4=C(C=C(C=C4)F)Cl [VX-11e] + C[C@@H](Oc1cc(-c2cnn(C3CCNCC3)c2)cnc1N)c1c(Cl)ccc(F)c1Cl [Crizotinib] (partner 1 µM)
# Method in brief: as §1
Cell Line,relative viability (VX-11e + OSI-027; first compound 0.04 µM),relative viability (VX-11e + OSI-027; first compound 0.1265 µM),relative viability (VX-11e + OSI-027; first compound 0.4 µM),relative viability (VX-11e + OSI-027; first compound 1.265 µM),relative viability (VX-11e + OSI-027; first compound 4 µM),relative viability (VX-11e + Trametinib; first compound 0.04 µM),relative viability (VX-11e + Trametinib; first compound 0.1265 µM),relative viability (VX-11e + Trametinib; first compound 0.4 µM),relative viability (VX-11e + Trametinib; first compound 1.265 µM),relative viability (VX-11e + Trametinib; first compound 4 µM),relative viability (VX-11e + Phenformin; first compound 0.04 µM),relative viability (VX-11e + Phenformin; first compound 0.1265 µM),relative viability (VX-11e + Phenformin; first compound 0.4 µM),relative viability (VX-11e + Phenformin; first compound 1.265 µM),relative viability (VX-11e + Phenformin; first compound 4 µM),relative viability (VX-11e + Crizotinib; first compound 0.04 µM),relative viability (VX-11e + Crizotinib; first compound 0.1265 µM),relative viability (VX-11e + Crizotinib; first compound 0.4 µM),relative viability (VX-11e + Crizotinib; first compound 1.265 µM),relative viability (VX-11e + Crizotinib; first compound 4 µM)
NCI-H1734,0.566,0.459,0.472,0.348,0.227,0.619,0.675,0.536,0.557,0.375,0.369,0.391,0.323,0.231,0.209,0.67,0.584,0.652,0.606,0.296
NCI-H1755,0.665,0.527,0.4,0.756,0.468,0.751,0.755,0.78,0.778,0.612,0.694,0.542,0.248,0.594,0.51,0.905,0.849,0.845,0.873,0.491
NCI-H1792,0.733,0.581,0.524,0.634,0.208,–,0.392,–,0.322,0.102,0.151,0.386,0.137,0.0901,0.038,0.956,0.954,0.915,0.982,0.52
NCI-H1915,0.573,0.439,0.254,0.338,0.213,0.305,0.284,0.233,0.204,0.114,0.401,0.343,0.291,0.298,0.235,0.945,0.82,0.919,0.788,0.548
